Five molecules from patent publication US20050153872A1, “Methods and compositions for the treatment of infection” (priority 2004, published 2005) can be followed below.

The subject of one experiment is Acenetobactor (20). As to the kind of experiment: In vitro antibacterial activity (MIC), clinical isolates. Type of experiment: cell-based. Here is the method:
(§1) The following experiments were performed by Lab. of Pharmacology, National Sichuan antibiotic industril institute, Chengdu, Sichuan.
(§2) The following agents were used to test the in vitro activity of Ph-SA:
(§3) All the bacterial strains used in the experiments were clinical isolates collected from Sichuan and Beijing in 2002 and identified by West China Hospital, Sichuan University and Chongqing University of Medical Sciences with API system. The following strains were used in the experiments detailed below: Staphylococcus aureus 168 strains (MRSA 80 strains and MSSA 88 strains) Staphylococcus epidermidis 46 strains (MRSE 25 strains and MSSE 21 strains), Enterococcus 20 strains, and Acenetobactor 20 strains. Staphylococcus aureus ATCC25923, 29213 and BAA-42 were used as control strains. Bacterial strains were contacted with one of the above described compounds and MIC50, MIC90 and MICScope were determined.

A further experiment deals with Enterococcus (20). The description is as above. The class given is cell-based. To be noted: 20 Enterococcus clinical isolates. Here is the method:
as §1, §2, §3

In experiment [1] the test system is Staphylococcus aureus MRSA strain (80). The experiment is described as above. To be noted: Staphylococcus aureus, MRSA. Type of experiment: cell-based. Here is the method:
as §1, §2, §3

For experiment [2], the system named is Staphylococcus aureus MSSA strain (88). The description is as above. The class given is cell-based. To be noted: Staphylococcus aureus, 88 MSSA clinical isolates. Here is the method:
as §1, §2, §3

The subject of experiment [3] is Staphylococcus epidermidis MRSE strain (25). Described as above. The class given is cell-based. The conditions noted are these: Staphylococcus epidermidis, MRSE. The procedure:
as §1, §2, §3

Experiment [4] deals with Staphylococcus epidermidis MSSE strain (21). The description is as above. The class given is cell-based. The conditions noted are these: Staphylococcus epidermidis, 21 MSSE clinical isolates. Here is the method:
as §1, §2, §3

For experiment [5], the system named is S. aureus strain ATCC BAA-42 MRSA. The conditions noted are these: all agents 5 μg/ml.
For experiment [6], the system named is Candida albicans ATCC 10231. The experiment in a line: In vitro cell growth inhibition assay (OD595, filaments).

Converted amounts (≈) assume the structure as drawn.

By MIC50 is commonly meant the lowest concentration that inhibits either 50% of growth or 50% of the strains tested, depending on the study. By MIC90 is commonly meant an inhibitory concentration at the 90% level, which refers to growth in some studies and to a panel of isolates in others. For orientation: MIC means the lowest concentration found to suppress growth. For `Cc1onc(-c2ccccc2)c1C(=O)N[C@@H]1C(=O)N2[C@@H]1SC(C)(C)[C@@H]2C(=O)O` [Oxacillin, oxacillin], the MIC50 is over 128 µg/mL against Acenetobactor (20); 16 µg/mL (≈ 39.9 µM) in the experiment on Enterococcus (20) (read-out: MIC50); over 128 µg/mL in experiment [1]; 0.125 µg/mL (≈ 0.311 µM) in experiment [2] (read-out: MIC50); 64 µg/mL (≈ 159 µM) in experiment [3]; 0.03 µg/mL (≈ 0.0747 µM) in experiment [4] (read-out: MIC50). For the same molecule, the MIC90 with Acenetobactor (20) is over 128 µg/mL; in the experiment on Enterococcus (20) (read-out: MIC90) it was over 128 µg/mL; in experiment [1], over 128 µg/mL; in experiment [2] (read-out: MIC90) it was 0.125 µg/mL (≈ 0.311 µM); in experiment [3], over 128 µg/mL; in experiment [4] (read-out: MIC90), 0.25 µg/mL (≈ 0.623 µM). In addition, the MIC is over 128 µg/mL in the experiment on Acenetobactor (20) (read-out: MIC Scope), 0.5 to 128 µg/mL (≈ 1.25 to 319 µM) in experiment [1] (read-out: MIC Scope), 0.015 to 0.25 µg/mL (≈ 0.0374 to 0.623 µM) in experiment [2] (read-out: MIC Scope) and 0.015 to 0.25 µg/mL (≈ 0.0374 to 0.623 µM) in experiment [4]. Also, in experiment [5], the inhibition of growth result is “did not inhibit the growth”.

B1: Ph-SE: Colicin Ia linked to the pheromone of S. epidermidis (protein)
chain: SDPVARGITNPGAESLGYDSDGHEIMAVASPIYVASNPPRVASPVFHGTPPAWSSFGNKTIWGGNEWVASPDSPTRSDIEKRDKEITAYKNTLSAQQKENENKRTEAGKRLSAAIAAREKDENTLKTLRAGNADAADITRQEFRLLQAELREYGFRTEIAGYDALRLHTESRMLFADADSLRISPREARSLIEQAEKRQKDAQNADKKAADMLAEYERRKGILDTRLSELEKNGGAALAVLDAQQARLLGQQTRNDRAISEARNKLSSVTESLNTARNALTRAEQQLTQQKNTPDGKTIVSPEKFPGRSSTNHSIVVSGDPRFAGTIKITTSAVIDNRANLNYLLSHSGLDYKRNILNDRNPVVTEDVEGDKKIYNAEVALAEWDKLRQRLLDARNKITSAESAVASNSARNNLSARTNEQKHANDALNALLKEKENIRNQLSGINQKIAEEKRKQDELKATKDAINFTTEFLKSVSEKYGAKAEQLAREMAGQAKGKKIRNVEEALKTYEKYRADINKKINAKDRAAIAAALESVKLSDISSNLNRFSRGLGYAGKFTSLADWITEFGKAVARGTENWRPLFVKTETIIAGNAATALVALALVFSILTGSALGIIGYGLLMAVTGALIDESLVEKANKFWGIDSVCASYF
modifications: Colicin Ia attached to Pheromone peptide from Staphylococcus epidermidis
Consider B1, for which the inhibition of growth result in experiment [5] was “better effects”.

B2: Ph-SA3: Colicin Ia linked to the AgrDIII pheromone of S. aureus (protein)
chain: SDPVRITNPGAESLGYDSDGHEIMAVDIYVNPPRVDVFHGTPPAWSSFGNKTIWGGNEWVDDSPTRSDIEKRDKEITAYKNTLSAQQKENENKRTEAGKRLSAAIAAREKDENTLKTLRAGNADAADITRQEFRLLQAELREYGFRTEIAGYDALRLHTESRMLFADADSLRISPREARSLIEQAEKRQKDAQNADKKAADMLAEYERRKGILDTRLSELEKNGGAALAVLDAQQARLLGQQTRNDRAISEARNKLSSVTESLNTARNALTRAEQQLTQQKNTPDGKTIVSPEKFPGRSSTNHSIVVSGDPRFAGTIKITTSAVIDNRANLNYLLSHSGLDYKRNILNDRNPVVTEDVEGDKKIYNAEVAEWDKLRQRLLDARNKITSAESAVNSARNNLSARTNEQKHANDALNALLKEKENIRNQLSGINQKIAEEKRKQDELKATKDAINFTTEFLKSVSEKYGAKAEQLAREMAGQAKGKKIRNVEEALKTYEKYRADINKKINAKDRAAIAAALESVKLSDISSNLNRFSRGLGYAGKFTSLADWITEFGKAVRTENWRPLFVKTETIIAGNAATALVALVFSILTGSALGIIGYGLLMAVTGALIDESLVEKANKFWGIYINCDFLL
modifications: Colicin attached to Pheromone peptide encoding Staphylococcus aureus AgrDIII
As for B2, the inhibition of growth entry in experiment [5] is “some inhibition effects”.

B3: Ph-SA2: Colicin Ia linked to the AgrDII pheromone of S. aureus (protein)
chain: SDPVRITNPGAESLGYDSDGHEIMAVDIYVNPPRVDVFHGTPPAWSSFGNKTIWGGNEWVDDSPTRSDIEKRDKEITAYKNTLSAQQKENENKRTEAGKRLSAAIAAREKDENTLKTLRAGNADAADITRQEFRLLQAELREYGFRTEIAGYDALRLHTESRMLFADADSLRISPREARSLIEQAEKRQKDAQNADKKAADMLAEYERRKGILDTRLSELEKNGGAALAVLDAQQARLLGQQTRNDRAISEARNKLSSVTESLNTARNALTRAEQQLTQQKNTPDGKTIVSPEKFPGRSSTNHSIVVSGDPRFAGTIKITTSAVIDNRANLNYLLSHSGLDYKRNILNDRNPVVTEDVEGDKKIYNAEVAEWDKLRQRLLDARNKITSAESAVNSARNNLSARTNEQKHANDALNALLKEKENIRNQLSGINQKIAEEKRKQDELKATKDAINFTTEFLKSVSEKYGAKAEQLAREMAGQAKGKKIRNVEEALKTYEKYRADINKKINAKDRAAIAAALESVKLSDISSNLNRFSRGLGYAGKFTSLADWITEFGKAVRTENWRPLFVKTETIIAGNAATALVALVFSILTGSALGIIGYGLLMAVTGALIDESLVEKANKFWGIGVNACSSLF
modifications: Colicin attached to Pheromone peptide encoding Staphylococcus aureus AgrDII
B3: in experiment [5], the inhibition of growth entry was “some inhibition effects”.

B4: Rev. Ph-CA: Candida albicans alpha mating pheromone at N-terminus (S1) of colicin Ia (protein)
chain: GFRLTNFGYFEPGMSDPVARGITNPGAESLGYDSDGHEIMAVASPIYVASNPPRVASPVFHGTPPAWSSFGNKTIWGGNEWVASPDSPTRSDIEKRDKEITAYKNTLSAQQKENENKRTEAGKRLSAAIAAREKDENTLKTLRAGNADAADITRQEFRLLQAELREYGFRTEIAGYDALRLHTESRMLFADADSLRISPREARSLIEQAEKRQKDAQNADKKAADMLAEYERRKGILDTRLSELEKNGGAALAVLDAQQARLLGQQTRNDRAISEARNKLSSVTESLNTARNALTRAEQQLTQQKNTPDGKTIVSPEKFPGRSSTNHSIVVSGDPRFAGTIKITTSAVIDNRANLNYLLSHSGLDYKRNILNDRNPVVTEDVEGDKKIYNAEVALAEWDKLRQRLLDARNKITSAESAVASNSARNNLSARTNEQKHANDALNALLKEKENIRNQLSGINQKIAEEKRKQDELKATKDAINFTTEFLKSVSEKYGAKAEQLAREMAGQAKGKKIRNVEEALKTYEKYRADINKKINAKDRAAIAAALESVKLSDISSNLNRFSRGLGYAGKFTSLADWITEFGKAVARGTENWRPLFVKTETIIAGNAATALVALALVFSILTGSALGIIGYGLLMAVTGALIDESLVEKANKFWGI
modifications: Candida albicans alpha mating pheromone attached to colicin
Turning to B4, in experiment [6] (20 μg/ml), the “inhibition effect as compared to PMC-CA” value is listed as “about 30%”. The “antifungal effect against Candida albicans in vitro and in vivo” value in experiment [6] (general statement) was “no effect”.
